Where a SMILES comes first, the peptide text is derived from it. [ ]: non-standard residue; d: D form. The star is where a group is joined. ξ: configuration not given here. Nle(5E-ene,6-CO2Et) = CCOC(=O)/C=C/CC[C@H](N)C(=O)O; Oic(3aξ,7aξ) = O=C(O)[C@@H]1CC2CCCCC2N1; Cbz = O=C(OCc1ccccc1)*
Molecular target: T1, Coagulation factor XIII A chain (Homo sapiens, UniProt P00488)
T1 sequence (P00488 whole entry): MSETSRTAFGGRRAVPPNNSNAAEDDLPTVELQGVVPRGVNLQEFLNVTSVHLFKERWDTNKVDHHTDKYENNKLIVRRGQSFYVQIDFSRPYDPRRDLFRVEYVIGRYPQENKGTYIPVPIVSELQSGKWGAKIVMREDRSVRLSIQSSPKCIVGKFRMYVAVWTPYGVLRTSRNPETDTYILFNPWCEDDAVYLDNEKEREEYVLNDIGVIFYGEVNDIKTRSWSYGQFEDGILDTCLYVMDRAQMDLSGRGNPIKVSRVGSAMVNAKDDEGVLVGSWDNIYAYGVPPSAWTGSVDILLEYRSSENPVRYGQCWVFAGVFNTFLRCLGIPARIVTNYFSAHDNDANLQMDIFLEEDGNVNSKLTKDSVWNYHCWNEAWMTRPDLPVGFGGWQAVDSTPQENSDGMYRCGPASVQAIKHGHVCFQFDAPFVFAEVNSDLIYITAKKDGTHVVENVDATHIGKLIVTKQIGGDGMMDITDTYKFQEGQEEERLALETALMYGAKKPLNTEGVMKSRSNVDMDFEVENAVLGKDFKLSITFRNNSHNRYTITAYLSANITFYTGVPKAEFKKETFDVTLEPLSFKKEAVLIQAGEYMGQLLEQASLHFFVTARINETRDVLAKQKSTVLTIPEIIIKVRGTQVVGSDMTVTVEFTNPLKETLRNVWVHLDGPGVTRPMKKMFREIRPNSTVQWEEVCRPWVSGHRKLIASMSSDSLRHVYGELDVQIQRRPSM
Assay: All measurements were performed in triplicate.

IC50: > 10 µM
Structure (SMILES): CCOC(=O)/C=C/CC[C@H](NC(=O)OCc1ccccc1)C(=O)N[C@H](C(=O)N1C2CCCCC2C[C@H]1C(=O)N[C@@H](CC(C)C)C(N)=O)C(C)C (stereo partly drawn) (Cbz-[Nle(5E-ene,6-CO2Et)]V[Oic(3aξ,7aξ)]L-NH2)
